This is an account of results in paper PMC4361473, “A New System for Profiling Drug-Induced Calcium Signal Perturbation in Human Embryonic Stem Cell–Derived Cardiomyocytes” (Journal of Biomolecular Screening, 2015).

Series [1] relates to Cytiva hSCCMs. The series can be described thus: SALVO profiling of drug-evoked Ca2+ signal perturbation (fluo-4 confocal imaging). The note with it: for EC20 AHI: 20% change from control in amplitude heterogeneity index; for EC20 AHI / EC20 Synch / EC20 ITN / EC20 THI / EC20 Rate: regression of Figure 3 data; for EC20 Synch: 20% change from control in intercellular synchronization; for EC20 ITN: 20% change from control in intertransient noise; for EC20 THI: 20% change from control in temporal heterogeneity index; for EC20 Rate: drug concentration producing a 20% change from control (no drug) in Ca2+ oscillation rate; for SALVO toxicity score, rank order of the extent of Ca2+ perturbation: five-parameter SALVO output integrated over 0.1-1000 nM, normalized to control; for Effect on Ca2+ handling (SALVO parameters): concentrations up to 30 µM. The source says:
Cytiva hSCCMs were derived from monolayer differentiation of an H7 hESC cell line that had been expanded under feeder-free conditions and then subjected to a proprietary differentiation protocol (GE Healthcare, Piscataway, NJ, USA).[13] […] Cells were thawed and seeded into 7-mm^2 chambers created by the adherence of silicon gaskets (CultureWell MultiWell 3 mm in diameter, 1-mm-depth inserts [Life Technologies]) on glass-bottomed culture chambers (In Vitro Scientific, Sunnyvale, CA, USA) that had been precoated with Matrigel (BD Biosciences, Franklin Lakes, NJ, USA), Franklin Lakes, NJ, USA diluted 1:30 (v/v) in Knockout DMEM (Life Technologies, Carlsbad, CA, USA). […] Cells were allowed to adhere to the coverslip for 2 h before the dish was filled with RPMI/B27 (2 mL). Medium was exchanged every 48 h.
Cells were incubated with fluo-4 AM (5 µM) (Life Technologies) for 1 h at 37°C before coverslips were flooded with RPMI/B27 (2 mL). […] Cells were maintained at 37 °C throughout experiments. […] The application of caffeine (5 mM final concentration) was used to trigger sarcoplasmic reticulum (SR) Ca^2+ release and thereby estimate the intra-SR Ca^2+ store load.
Taking our lead from Uhlen’s method of using spectral analysis to investigate the organization of Ca^2+ signals,[14] we developed SALVO to decode the spatiotemporal patterning of Ca^2+ oscillations within individual cells and across multicellular populations. SALVO outputs 30 parameters that describe Ca^2+ signal organization,[15] but for the purposes of this study, we focused on five parameters: oscillation rate (rate, Hz) and four other parameters that quantify the amplitude and temporal patterning of Ca^2+ oscillation: (1) amplitude heterogeneity index (AHI) and (2) temporal heterogeneity index (THI), statistical assessments of signal amplitude and temporal variability within single cells, respectively; (3) intertransient noise (ITN), defined as the Ca^2+ signal variability occurring between Ca^2+ oscillations and that extends the use of signal variability (SV) to measure point-by-point differences in very low-amplitude Ca^2+ signals[6],[10],[12]; and (4) synchronization, an index of the temporal coincidence of Ca^2+ oscillation maxima occurring across cells in the population. The calculation of these parameters is described in Supplementary Figure S1. SALVO is implemented using a Python-based computer program.[15] The detection of signal maxima and minima over a 30-s period in data obtained from 6 to 20 cells in each instance was performed using SALVO’s autodetection algorithms (based on spline detect or threshold detection methods) or by manual assignation of the start, peak, and end of each Ca^2+ spike. SALVO outputs were archived and interrogated using a custom-built SQL-based database system (DB Miner, CHG, NCS, SBJ).
Baseline assessments of Ca^2+ signals in fluo-4–loaded cells prior to the addition of drug (control) were established as described above.
After each addition and following a period of equilibration (approximately 90 s), fluo-4–dependent Ca^2+ signals were acquired for 30 s. Using this protocol, the same population of cells was imaged throughout the entire drug addition sequence.
In all experiments, operators were blinded to the identities of the drugs under test throughout all phases of postexperimental data analysis.
Supplementary Table 2. EC20 values for Ca2+ perturbation.
Drug concentrations (nM) that produced a 20% change from control values (no drug) were calculated for each SALVO parameter from regression analysis of […]
The effective therapeutic plasma concentration of free drug (ETPCunbound, nM) was calculated in Supplementary Table 1.
Calculate percentage effect size (E) for each SALVO parameter, normalized to Ew = E x λ control conditions, at each drug concentration Effect size (E,%) λ
Cumulative Ew for drug concentrations of 0.1, 1, 10, 100 and 1000 nM for The relationship between E and λ is given by […]

A short description of series [2]: Effective therapeutic plasma concentration (ETPC, ETPCunbound). The class given is in vivo, human. As to conditions: free plasma concentration calculated from ETPC and free drug %, Supplementary Table 1. The source says: There is also the issue regarding the relevance of drug potency determined in vitro to clinical dosing in humans. Guo and colleagues[25],[27] used an impedance-derived index of arrhythmic beating in hSCCMs to derive a predicted proarrhythmic score (PPS) that took into account the therapeutically relevant total concentration of drug in human plasma (defined as Ceff). More recently, Clements and Thomas[13] used a similar approach to generate a predictive risk score (PRS) based on their measurement of field potential duration (FPD) in Cytiva.
Supplementary Table 1. Calculating the free plasma concentration of […]
described by Redfern et al. (Redfern et al. (2003) Cardiovasc. Res. 58:32-45) was used to calculate the levels of free drug (ETPCunbound). ETPC for nadolol and valdecoxib were from Krukemyer et al. (Pharm. Res. (1990) 9:953-956) and Yuan et al. (Drug Metab. Disp. (2002) 30:1013-1021), respectively. The values for drug-protein binding were obtained from DrugBank (www.drugbank.ca).

In series [3] the test system is Cytiva hSCCMs. The series can be described thus: Whole-cell current-clamp recording of spontaneous action potentials (APD90). The note with it: drug at EC20 concentration, 3 min; Fridericia-corrected; blebbistatin-immobilized cells. The format is cell-based, human. Here is the method: Cells in 35-mm glass-bottomed culture dishes containing a superfusion insert (AutoMate PCP-1; Digitimer Ltd., Welwyn Garden City, UK) were mounted on the stage of an inverted microscope (CKX-41; Olympus, Tokyo, Japan) and were superfused with normal Tyrode (NT) solution (containing [in mM] NaCl, KCl, MgCl2 [1], CaCl2 [2], HEPES [10], glucose; pH 7.4 with NaOH) or NT-containing drugs maintained at 37 °C using a heated jacket.
Cells were whole-cell clamped with 3- to 4-MΩ patches and an intrapipette solution (containing in [mM] KCl, MgCl2 [1.75], CaCl2 [5.37], EGTA [10], HEPES [10], and Na2ATP [4]; pH 7.2 with KOH) in current-clamp (IC) mode using a CV-7B headstage and MultiClamp 700B amplifier controlled by MultiClamp software (Molecular Devices, Sunnyvale, CA). Data were digitized and acquired using a Digidata 1322a card and pClamp software, respectively (Molecular Devices). Action potentials were sampled at a rate of 20 kHz and low pass (Bessel) filtered at 10 kHz.
Spontaneous cell contracture was terminated using blebbistatin (5 µM, 10 min), an agent that inhibits myofilament shortening and thereby negates patch-clamp recording instability but preserves normal Ca^2+ cycling.[20] […] Action potential (AP) recordings from blebbistatin-immobilized cells were taken under control (no-drug) conditions (1 min) and following the switch to drug-containing NT. APD90, corrected for AP cycle length using Fridericia’s method (APD90(corr) = APD90/cycle length^[…]), was calculated from five consecutive APs following a 3-min exposure of the cells to drug.
Figure 4. Investigating the effect of cardiovascular-active drugs on Cytiva APD90. (A) Cells were exposed to drugs at EC20 concentrations for 3 min (Suppl. Table S2). APD90 values were corrected for beat period using Fridericia’s algorithm. Data points represent individual paired experiments (n = 6). Representative control (gray) and drug-treated (black) action potential traces are shown. (B) APD90 plotted as the percentage change relative to the paired control value (no drug). *p < 0.05. **p < 0.01.

The conditions of series [4]: cited from earlier work; for TdP risk category: categories assigned by Redfern and colleagues.
The conditions of series [5]: maximal effective therapeutic plasma concentration, cited from earlier work.
On the set-up of series [6]: method as in DrugBank (www.drugbank.ca). As to conditions: from drug-protein binding values; ref DrugBank (www.drugbank.ca); cited from earlier work.
Setting [7] is: spontaneously oscillating Cytiva.

Read-outs that look alike come from different tables or passages of the source. A value given as a limit tells only on which side of the number the result lay.

Regarding `O=C(NCC1CCCCN1)c1cc(OCC(F)(F)F)ccc1OCC(F)(F)F` (centres unmarked) [Flecainide, flecainide], in series [1], the “EC20 AHI” value is 0.26 µM, the “EC20 Synch” value was more than 30 µM, the “EC20 ITN” value was found to be 2.11 µM and the “EC20 THI” value was found to be 0.285 µM. In addition, in series [1], the “EC20 Rate” value worked out at 0.215 µM and the “SALVO toxicity score, rank order of the extent of Ca2+ perturbation” value (from here on “SALVO toxicity score, rank order”) is given as “astemizole > thioridazine > cisapride > flecainide > valdecoxib > sotalol > nadolol”. For the same compound, in series [1] (PPS = ETPCunbound/EC20), the “Predicted proarrhythmic score (PPS)” value is reported as “elevated PPS”. For the same compound, the “Effect on Ca2+ handling (SALVO parameters)” value (shortened to “Effect on Ca2+ handling”) in series [1] (setting [7]) is listed as “large effect sizes in multiple parameters”. In addition, the ETPCunbound in series [2] was 1159 nM. In addition, the “Effect on APD90 (action potential duration)” value in series [3] is given as “no effect”.

Take `CC(CC(c1ccccc1)c1ccccc1)NC(C)(C)C` (centres unmarked) [terodiline]: the TdP risk category entry in series [4] is reported as “category 2”.

Take `CSc1ccc2c(c1)N(CCC1CCCCN1C)c1ccccc1S2` (centres unmarked) [Thioridazine, thioridazine]: in series [1], the “EC20 AHI” value amounted to 0.205 µM, the “EC20 Synch” value came out at 0.12 µM, the “EC20 ITN” value was found to be 0.11 µM and the “EC20 THI” value stood at 0.53 µM. Also, in series [1], the “EC20 Rate” value is 1.12 µM and the “SALVO toxicity score, rank order” value was “astemizole > thioridazine > cisapride > flecainide > valdecoxib > sotalol > nadolol”. In addition, in series [1] (PPS = ETPCunbound/EC20), the PPS rank order result was “thioridazine > cisapride > valdecoxib”. The “Effect on Ca2+ handling” value in series [1] (setting [7]) is reported as “large effect sizes in multiple parameters”. Besides, the ETPCunbound in series [2] is recorded as 89 nM. In addition, the “Effect on APD90 (action potential duration)” value in series [3] is on record as “increased APD90”.

Consider `CCCCc1oc2ccccc2c1C(=O)c1cc(I)c(OCCN(CC)CC)c(I)c1` [amiodarone], for which the TdP risk category entry in series [4] is given as “category 1”.

On to `CC(C)(C)NCC(O)COc1cccc2c1CC(O)C(O)C2` (centres unmarked) [Nadolol, nadolol], for which, in series [1], the “EC20 AHI” value is more than 30 µM, the “EC20 Synch” value was more than 30 µM, the “EC20 ITN” value is more than 30 µM and the “EC20 THI” value is more than 30 µM. For the same compound, in series [1], the “EC20 Rate” value is more than 30 µM and the “SALVO toxicity score, rank order” value was “astemizole > thioridazine > cisapride > flecainide > valdecoxib > sotalol > nadolol”. The “Effect on Ca2+ handling” value in series [1] (setting [7]) is listed as “no measurable effect”. Further, the ETPCunbound in series [2] is given as 271 nM. The ETPC in series [5] (ref Krukemyer et al. (Pharm. Res. (1990) 9:953-956)) is 0.387 µM. Also, the Free drug in series [6] is given as 70%. Besides, the TdP risk category entry in series [4] was “category 5”.

Take `CC(C)NCC(O)c1ccc(NS(C)(=O)=O)cc1` (centres unmarked) [Sotalol, sotalol]: in series [1], the “EC20 AHI” value turned out to be 0.21 µM, the “EC20 Synch” value was more than 30 µM, the “EC20 ITN” value is more than 30 µM and the “EC20 THI” value is more than 30 µM. In addition, in series [1], the “EC20 Rate” value was more than 30 µM and the “SALVO toxicity score, rank order” value is on record as “astemizole > thioridazine > cisapride > flecainide > valdecoxib > sotalol > nadolol”. Besides, the “Predicted proarrhythmic score (PPS)” value in series [1] (PPS = ETPCunbound/EC20) is listed as ~ 15. In addition, in series [1] (setting [7]), the “Concentration causing an isolated change in AHI” value is more than 1 µM and the “Effect on intercellular synchronization” value is recorded as “did not reduce the extent of intercellular synchronization”. Further, in series [2], the ETPCunbound is on record as 14733 nM. The ETPCunbound in series [2] (listed as sotalol) is on record as 14,733 nM. Moreover, the ETPC in series [5] (ref Redfern et al. (2003) Cardiovasc. Res. 58:32-45) is 14.733 µM. For the same compound, the “Therapeutic plasma concentration with QT-prolonging effects” value in series [4] (reported, no reference given) is “exceeding 10 µM”.

In the case of `COc1ccccc1OCC(O)CN1CCN(CC(=O)Nc2c(C)cccc2C)CC1` (centres unmarked) [Ranolazine, ranolazine], in series [1] (setting [7]), the “Effect on intercellular synchronization” value is given as “reduced intercellular synchronization” and the “Effect on Ca2+ handling” value is reported as “unchanged Ca^2+ cycling”.

As to `COc1ccc(CCN(C)CCCC(C#N)(c2ccc(OC)c(OC)c2)C(C)C)cc1OC` (centres unmarked) [Verapamil, verapamil], in series [1] (setting [7]), the “Concentration reducing the rate of Ca2+ oscillation” value was more than 10 µM and the “Effect on Ca2+ handling” value is “no measurable effect”.
